Experimental findings from patent publication US10987349B2, “Antitumor agent and bromodomain inhibitor” (FUJIFILM Corporation, priority 2016, dated 2021) are described below.

The subject of one test is Daudi. Kind of test: Cell growth test (Cell Titer Blue) Daudi. The test is classed as cell-based. The note with it: Homo sapiens, 72 h, Lymphoma, 3 days. How it is done:
(§1) Moreover, the compound of Example 14 was subjected to a cell growth test using various types of cell lines.
(§2) All cell lines other than the below-noticed cells were each seeded in a well plate, in which an RPMI-1640 medium supplemented with penicillin/streptomycin and FBS with a final concentration of 10% was placed. The human prostate cancer cell line VCaP (ATCC) was seeded in a well plate, in which DMEM medium supplemented with penicillin/streptomycin and FBS with a final concentration of 10% was placed. […] Thereafter, using Enspire Multimode Plate Reader (PerkinElmer), the amount of fluorescence at an excitation wavelength of 531 nm and a fluorescence wavelength of 615 nm was measured. Since the amount of fluorescence is in proportion to the concentration of a florescent product resorufin that is converted from resazurin as a redox dye by living cells, the amount of fluorescence was used as an indicator of the number of living cells. The growth inhibition percentage of the test compound in each concentration was calculated according to the following equation. Growth inhibition percentage (%)=(amount of fluorescence in test compound−added well)/(amount of fluorescence in DMSO−added well)×100 […]
(In general: Alamar Blue is a resazurin reagent that responds to reducing activity.)

Another test concerns HT-29. Put plainly: Cell growth test (Cell Titer Blue) HT-29. Type of test: cell-based. The following applies: Homo sapiens, 72 h, HT-29, Colon cancer, 3 days. The method, then: as §1, §2
The subject of a further test is MDA-MB-435. Put plainly: Cell growth test (Cell Titer Blue) MDA-MB-435. The test is classed as cell-based. The following applies: Homo sapiens, 72 h, MDA-MB-435, Melanoma, 3 days. How it is done:
as §1, §2

A further test concerns NCI-H1299. Put plainly: Cell growth test (Cell Titer Blue) NCI-H1299. The note with it: Homo sapiens, 72 h, NCI-H1299, Lung cancer, 3 days. Type of test: cell-based. How it is done:
as §1, §2

The next test relates to SK-HEP-1. Put plainly: Cell growth test (Cell Titer Blue) SK-HEP-1. The test is classed as cell-based. The note with it: Homo sapiens, SK-HEP1, 72 h, SK-HEP-1, Liver cancer, 3 days. The method, then: as §1, §2
A further test has as its system NCI-H69. Kind of test: Cell growth test (Cell Titer Blue) NCI-H69. The test is classed as cell-based. The note with it: Homo sapiens, 72 h, NCI-H69, Lung cancer, 3 days. The method, then:
as §1, §2

Another test deals with KG-1A. Kind of test: Cell growth test (Cell Titer Blue) KG-1A. Type of test: cell-based. The note with it: Homo sapiens, 72 h, Acute myeloid leukemia, 3 days. The method, then: as §1, §2
For test [1], the system named is human lymphoma cell line OCI-Ly7. Put plainly: Cell growth test (Cell Titer Blue) OCI-LY7. Type of test: cell-based. The following applies: 72 h, 3 days. How it is done: as §1, §2
In the next test the test system is IL-7R gene. Put plainly: Expression of IL-7R gene in MV4-11 cells, RT-PCR. The test is classed as cell-based, human. The note with it: MV4-11 cells, 10, 30 or 100 nmol/L, 6 hours. How it is done:
A fluctuation in the expression of c-Myc, IL-7R and HEXIM1 genes in MV4-11 (ATCC) cells treated with the test compound was analyzed according to a reverse transcription polymerase chain reaction (RT-PCR) method.
MV4-11 cells were cultured for 6 hours in an RPMI-1640 medium supplemented with penicillin/streptomycin and FBS with a final concentration of 10%, to which the compound of Example 14 was added to a concentration of 10 nmol/L, 30 nmol/L or 100 nmol/L. On the other hand, a non-treatment group (Non-treatment) was established by culturing MV4-11 cells for 6 hours in the above-described medium, to which the compound of Example 14 was not added. Using Rneasy (registered trademark) (Qiagen), RNA was extracted from the above-described MV4-11 cells in accordance with the instruction manual included with the aforementioned device. […] Thereafter, a PCR reaction was carried out for 40 cycles (a cycle consisting of 95° C.-5 seconds and 60° C.-30 seconds.) Subsequently, the obtained reaction product was measured.
As a housekeeping gene, the expression level of GAPDH (Glyceraldehyde 3-phosphate dehydrogenase) was also evaluated. The ratio of the expression level of the mRNA of each of c-Myc, IL-7R and HEXIM1 to the expression level of GAPDH was calculated, and the expression level of each gene (relative expression level) was then quantified. […]

A further test has as its system NOMO-1. Put plainly: Cell growth test (Cell Titer Blue) NOMO-1. Type of test: cell-based. The note with it: Homo sapiens, 72 h, NOMO-1, Acute myeloid leukemia, 3 days. How it is done:
as §1, §2

For another test, the system named is Jurkat. Put plainly: Cell growth test (Cell Titer Blue) Jurkat. Type of test: cell-based. The following applies: Homo sapiens, 72 h, Acute lymphoblastic leukemia, 3 days. The method, then: as §1, §2
The subject of the next test is A2780. Put plainly: Cell growth test (Cell Titer Blue) A2780. The test is classed as cell-based. The following applies: Homo sapiens, 72 h, A2780, Ovarian cancer, 3 days. How it is done:
as §1, §2

The next test has as its system CCRF-CEM. Kind of test: Cell growth test (Cell Titer Blue) CCRF-CEM. The following applies: Homo sapiens, 72 h, Acute lymphoblastic leukemia, 3 days. The test is classed as cell-based. How it is done: as §1, §2
The next test has as its system MCF-7. Kind of test: Cell growth test (Cell Titer Blue) MCF-7. The note with it: Homo sapiens, MCF7, 72 h, MCF-7, Breast cancer, 3 days. The test is classed as cell-based. The method, then: as §1, §2
The next test deals with U-937. Kind of test: Cell growth test (Cell Titer Blue) U-937. The test is classed as cell-based. The following applies: Homo sapiens, 72 h, U-937, Lymphoma, 3 days. The method, then: as §1, §2
Another test deals with SW-620. Kind of test: Cell growth test (Cell Titer Blue) SW-620. Type of test: cell-based. The note with it: Homo sapiens, 72 h, SW-620, Colon cancer, 3 days. How it is done:
as §1, §2

The next test deals with Raji. Put plainly: Cell growth test (Cell Titer Blue) Raji. Type of test: cell-based. The following applies: Homo sapiens, 72 h, Lymphoma (DSMZ), 3 days. The method, then: as §1, §2
A further test relates to HCT-15. Kind of test: Cell growth test (Cell Titer Blue) HCT-15. The test is classed as cell-based. The note with it: Homo sapiens, 72 h, HCT-15, Colon cancer, 3 days. How it is done:
as §1, §2

SMILES strings stand for the structures.

By GI50 is commonly meant the concentration at which growth is held to half of that of the control. High values mean lower sensitivity of the cells, low ones greater sensitivity of the cells. For the molecule `CCn1c(=O)cc(C2CCN(C)CC2)c2cc(C(=O)N(C)c3ccc(C)cc3)ccc21` [Example 14, 1-Ethyl-N-methyl-N-(4-methylphenyl)-4-(1-methylpiperidin-4-yl)-2-oxo-1,2-dihydroquinoline-6-carboxamide], the GI50 in the test with Daudi was found to be 165 nM; in the test with HT-29 it was 120 nM; in the test with MDA-MB-435, 2780 nM; in the test with NCI-H1299 it was 422 nM; in the test on SK-HEP-1, 2500 nM; in the test with NCI-H69 it was 975 nM. Moreover, the GI50 in the test on KG-1A came out at 119 nM; in test [1], 274 nM; with NOMO-1 it was 62 nM; in the test on Jurkat it was 129 nM; in the test on A2780, 582 nM; with CCRF-CEM, 65 nM. Moreover, the GI50 in the test with MCF-7 worked out at 689 nM; in the test with U-937, 286 nM; in the test on SW-620, 273 nM; in the test on Raji, 203 nM; with HCT-15, 505 nM. The “mRNA expression of IL-7R (GAPDH correction)” value with IL-7R gene was “decreased in a compound concentration-dependent manner”.
